What is called pIC50 is the IC50 on a negative log10 scale, so that one unit is a factor of ten. Read a low pIC50 as a high IC50.

pIC50: −log10 of the molar value.

From ChEMBL document CHEMBL1122597, “Palladium (II)-catalyzed olefin-coupling reactions of kainic acid: effects of substitution on the isopropenyl group on receptor binding” (J Med Chem, 1984) come the findings set out here.

The species entered for this assay is Rattus norvegicus. As to the kind of experiment: Concentration that produces 50% displacement of [3H]-kainic acid from nerve cell membrane receptor sites. In kind it is functional. A general note: Loss of bound radioactivity is the signal in a displacement assay; it reports binding, not function.
The compound `C=C(C)[C@H]1CN[C@H](C(=O)O)[C@H]1CC(=O)O` [KAINIC ACID] had a pIC50 of 7.75.
In the case of `CC(C)[C@H]1CN[C@H](C(=O)O)[C@H]1CC(=O)O` [DIHYDROKAINATE] it was 6.19.
With `C/C(=C\c1cccc([N+](=O)[O-])c1)C1CN[C@H](C(=O)O)C1CC(=O)O` (some centres undefined) the figure was 7.10; with `C/C(=C/c1cccc([N+](=O)[O-])c1)C1CN[C@H](C(=O)O)C1CC(=O)O` (some centres undefined), 6.38.
